Results: patent publication US20130267516A1, “SUBSTITUTED CYCLOPENTYL-AZINES AS CASR-ACTIVE COMPOUNDS” (LEO PHARMA A/S, priority 2010, published 2013)

Experiment: Clearance in human liver microsomes
Type: in vitro ADME
Conditions: hepatic extraction ratio; 0.5 μM compound, 0.5 mg/mL microsomes, 1 mM NADPH, 30 min
Experimental: Test compound concentration is 0.5 μM, microsome concentration is 0.5 mg/mL and NADPH concentration is 1 mM in the incubation. The described method is performed by the liquid handling system Tecan RSP and is based on a 96-well format.
Control incubations with test compound without NADPH and test compound without microsomes are conducted to investigate non-CYP mediated metabolism and stability in phosphate buffer at 37° C., respectively.
The human liver microsomal suspension in phosphate buffer is mixed with NADPH. The mixture is pre-heated (7 min) to 37° C. Test compound is added, and the mixture is incubated for 30 minutes. Incubations are run in duplicate. Samples are withdrawn at predetermined stop times and mixed with methanol containing internal standard (IS) to terminate all enzyme activity and precipitate proteins. A control without NADPH (to detect problems such as nonspecific protein binding, heat instability or non-CYP mediated metabolism) and a control without microsomes (for assessing compound stability in the absence of any active enzymes) are tested.
The percentage of organic solvent in the incubations is less than 1%. Careful inspections of reagents are performed prior to the start of any experiment to ensure all reagents are in solution.
The 96-well plates are centrifuged. Test compound depletion, using a compound specific LC/MS/MS method, is determined.
The logarithm of the peak area ratios of test compound to internal standard (IS) versus incubation time is plotted in a graph.
The rate constant (k) (min^−1) of test compound depletion is calculated from the linear part of the curve and the half-time (t1/2) in minutes can be calculated from the rate constant (Eq. 2).
Intrinsic clearance (Clint) (mL/min/mg protein) is calculated from: […]
where c is the microsomal protein concentration in mg/mL.
Intrinsic clearance is the maximum ability of the liver to extract a drug in the absence of blood flow restrictions.
Conversion to apparent clearance (Clapp) (mL/min/kg) is done by Eq. 4:
Clapp=Clint×a×b/d (Eq. 4)
where a, b and d are the scaling factors for normalizing Clint to human body weight.
The following human scaling factors are used:
a: 45 (microsomal protein/liver weight (mg/g)) b: 1500 (liver weight (g)) d: 70 (body weight (kg))
Hepatic clearance (Clh) (mL/min/kg) based on the well-stirred model is described as followed:
Clh=(Clapp·Q)/(Clapp+Q) (Eq. 5)
where Q is the liver blood flow in mL/min/kg (20 in humans).
Dividing hepatic clearance with liver blood flow, the hepatic extraction ratio (%) can be calculated:
Apparent clearance below approximately 10 mL/min/kg human body weight (corresponding to extraction ratio of approx. 33%) is considered as low clearance (high metabolic stability). Apparent intrinsic clearance above approximately 60 mL/min/kg human body weight (corresponding to extraction ratio of approx. 75%) is considered as high clearance (low metabolic stability).

Row | SMILES | Clearance (% Eh) in human liver microsomes
1 | COc1cc([C@@H](C)N[C@H]2CC[C@@H](c3cnc(N4CCNC(=O)C4)nc3)C2)ccc1F [Compound 126, 4-[5-[(1R,3S)-3-[[(1R)-1-(4-Fluoro-3-methoxy-phenyl)ethyl]amino]cyclopentyl]pyrimidin-2-yl]piperazin-2-one] | A (A: Eh < 33%)
2 | COc1cc([C@@H](C)N[C@H]2CC[C@@H](c3ccc(NCC(O)CO)nc3)C2)ccc1F (stereo partly drawn) [Compound 115, 3-[[5-[(1R,3S)-3-[[(1R)-1-(4-Fluoro-3-methoxyphenyl)ethyl]amino]cyclopentyl]-2-pyridyl]amino]propane-1,2-diol] | A (A: Eh < 33%)
3 | COc1cc([C@@H](C)N[C@H]2CC[C@@H](c3ccc(NCCS(N)(=O)=O)nc3)C2)ccc1F [Compound 113, 2-[[5-[(1R,3S)-3-[[(1R)-1-(4-Fluoro-3-methoxyphenyl)ethyl]amino]cyclopentyl]-2-pyridyl]amino]ethanesulfonamide] | A (A: Eh < 33%)

Second part, the compound after the results:

Row | Clearance (% Eh) in human liver microsomes | SMILES
4 | A (A: Eh < 33%) | COc1cc([C@@H](C)N[C@H]2CC[C@@H](c3ccc(N4CCN(C(C)=O)CC4)nc3)C2)ccc1F [Compound 116, 1-[4-[5-[(1R,3S)-3-[[(1R)-1-(4-Fluoro-3-methoxyphenyl)ethyl]amino]cyclopentyl]-2-pyridyl]piperazin-1-yl]ethanone]
5 | A (A: Eh < 33%) | COc1cc([C@@H](C)N[C@H]2CC[C@@H](c3ccc(N4CCNC(=O)C4)nc3)C2)ccc1F [Compound 109, 4-[5-[(1R,3S)-3-[[(1R)-1-(4-Fluoro-3-methoxy-phenyl)ethyl]amino]cyclopentyl]-2-pyridyl]piperazin-2-one]
6 | A (A: Eh < 33%) | C[C@@H](N[C@H]1CC[C@@H](c2ccc(NCCNCCO)nc2)C1)c1cccc2ccccc12.O=CO.O=CO.O=CO [Compound 101, 2-[2-[[5-[(1R,3S)-3-[[(1R)-1-(1-Naphthyl)ethyl]amino]cyclopentyl]-2-pyridyl]amino]ethylamino]ethanol]
7 | A (A: Eh < 33%) | COc1cc([C@@H](C)N[C@H]2CC[C@@H](c3cnc(N4CCN(C(C)=O)CC4)nc3)C2)ccc1F.O=CO [Compound 127, 1-[4-[5-[(1R,3S)-3-[[(1R)-1-(4-Fluoro-3-methoxy-phenyl)ethyl]amino]cyclopentyl]pyrimidin-2-yl]piperazin-1-yl]ethanone]
8 | A (A: Eh < 33%) | COc1cc([C@@H](C)N[C@H]2CC[C@@H](c3ccc(NC4CCNCC4)nc3)C2)ccc1F [Compound 107, 5-[(1R,3S)-3-[[(1R)-1-(4-Fluoro-3-methoxy-phenyl)ethyl]amino]cyclopentyl]-N-(4-piperidyl)pyridin-2-amine]
